Measured values from ChEMBL document CHEMBL3407355, “Understanding the importance of glycosylated threonine and stereospecific action of Drosocin, a Proline rich antimicrobial peptide” (Eur J Med Chem, 2015).
≈ marks a conversion by molar mass, not a printed value. Calls of active or inactive are those of the source. The rule behind the calls is not given here. Where a SMILES comes first, the peptide text is derived from it. The star is where a group is joined. αGalNAc = CC(=O)N[C@@H]1[C@@H](O)[C@@H](O)[C@@H](CO)O[C@@H]1*; X1 = CC(=O)N[C@H]1[C@H](O)[C@H](O)[C@H](CO)O[C@H]1*

Assays:
Salmonella typhi = test: Antimicrobial activity against Salmonella typhi Vi+ by broth microdilution assay; assay type: functional, Salmonella enterica subsp. enterica serovar Typhi; conditions: Salmonella enterica
Escherichia coli [1] = test: Antimicrobial activity against Escherichia coli ATCC 35218 by broth microdilution assay; assay type: functional
Escherichia coli [2] = test: Antimicrobial activity against Escherichia coli ATCC 11775 by broth microdilution assay; assay type: functional
Escherichia coli [3] = test: Inhibition of protein biosynthesis in Escherichia coli ATCC 25922 assessed as incorporation of [35S]methionine into protein at 10 times of MIC concentration by in-vivo translation assay; assay type: functional, organism-based
Escherichia coli [4] = test: Binding affinity to Escherichia coli His-tagged recombinant […] binding domain of DnaK assessed as rate constant by […] Plasmon resonance assay
Escherichia coli [5] = test: Inhibition of RNA biosynthesis in Escherichia coli ATCC 25922 assessed as incorporation of [3H]uridine into RNA at 10 times of MIC concentration by in-vivo transcription assay; assay type: functional, organism-based
Salmonella typhimurium = test: Antimicrobial activity against Salmonella typhimurium ATCC 14028 by broth microdilution assay; assay type: functional, Salmonella enterica subsp. enterica serovar Typhimurium; conditions: Salmonella enterica
[6] = Binding affinity to Escherichia coli His-tagged recombinant […] binding domain of DnaK by […] Plasmon resonance assay
Escherichia coli [7] = test: Drug uptake in Escherichia coli ATCC 25922 assessed as cellular internalization after 30 mins by FACS analysis; assay type: ADME, organism-based; conditions: in vivo, 0.5 h
Escherichia coli [8] = test: In-vitro inhibition of luciferase reporter gene translation in Escherichia coli S30 extract at 200 ng by transcription/translation assay; assay type: functional
Escherichia coli [9] = test: Antimicrobial activity against Escherichia coli ATCC 25922 by broth microdilution assay; assay type: functional
Escherichia coli [10] = test: Inhibition of protein biosynthesis in Escherichia coli ATCC 25922 assessed as incorporation of [35S]methionine into protein at 2.5 ug/300 ul by in-vivo translation assay; assay type: functional, organism-based

Molecule | MIC (Salmonella typhi) [µM] | MIC (Escherichia coli [1]) [µM] | MIC (Escherichia coli [2]) [µM] | inhibition (Escherichia coli [3]) | Ka (Escherichia coli [4]) [×10⁴ /M/s] | Kdiss (Escherichia coli [4]) [s⁻¹] | inhibition (Escherichia coli [5]) | MIC (Salmonella typhimurium) [µM] | Kd [6] [nM] | Drug uptake (Escherichia coli [7]) [%] | inhibition (Escherichia coli [8]) | MIC (Escherichia coli [9]) [µM] | inhibition (Escherichia coli [10])
CC[C@@H](C)[C@@H](NC(=O)[C@H]1CCCN1C(=O)[C@@H](CCCNC(=N)N)NC(=O)[C@H]1CCCN1C(=O)[C@@H](Cc1cnc[nH]1)NC(=O)[C@H]1CCCN1C(=O)[C@H]1CCCN1C(=O)[C@H]1CCCN1C(=O)[C@@H](CCCNC(=N)N)NC(=O)[C@H]1CCCN1C(=O)[C@H]1CCCN1C(=O)[C@@H](Cc1ccc(O)cc1)NC(=O)[C@H]1CCCN1C(=O)[C@@H](CCCNC(=N)N)NC(=O)[C@H]1CCCN1C(=O)[C@@H](CCCCN)NC(=O)CN)C(=O)N[C@H](CCCNC(=N)N)C(=O)N[C@@H](C(=O)O)C(C)C | > 200 | > 200 | > 200 | inactive | 9.34 | 0.0137 | inactive | > 200 | 1470 | 2 | Active | > 200 | 
CC[C@H](C)[C@H](NC(=O)[C@@H]1CCCN1C(=O)[C@H](CCCNC(=N)N)NC(=O)[C@@H]1CCCN1C(=O)[C@H](Cc1cnc[nH]1)NC(=O)[C@@H]1CCCN1C(=O)[C@@H]1CCCN1C(=O)[C@@H]1CCCN1C(=O)[C@H](CCCNC(=N)N)NC(=O)[C@@H]1CCCN1C(=O)[C@@H]1CCCN1C(=O)[C@H](Cc1ccc(O)cc1)NC(=O)[C@@H]1CCCN1C(=O)[C@H](CCCNC(=N)N)NC(=O)[C@@H]1CCCN1C(=O)[C@H](CCCCN)NC(=O)CN)C(=O)N[C@@H](CCCNC(=N)N)C(=O)N[C@H](C(=O)O)C(C)C | 0.6 (≈ 1.33 µg/mL) | 0.2 (≈ 0.443 µg/mL) | 0.3 (≈ 0.664 µg/mL) | Active | 2.45 | 0.0366 |  | 0.6 (≈ 1.33 µg/mL) | 1490 |  | Active | 0.3 (≈ 0.664 µg/mL) | 
CN(C)[C@@H]1C(O)=C(C(N)=O)C(=O)[C@@]2(O)C(O)=C3C(=O)c4c(O)cccc4[C@@](C)(O)[C@H]3C[C@@H]12 |  |  |  |  |  |  |  |  |  |  |  |  | Active
CC[C@H](C)[C@H](NC(=O)[C@@H]1CCCN1C(=O)[C@H](CCCNC(=N)N)NC(=O)[C@@H]1CCCN1C(=O)[C@H](Cc1cnc[nH]1)NC(=O)[C@H](CO)NC(=O)[C@H](CO[C@H]1O[C@H](CO)[C@H](O)[C@H](O)[C@H]1NC(C)=O)NC(=O)[C@@H]1CCCN1C(=O)[C@H](CCCNC(=N)N)NC(=O)[C@@H]1CCCN1C(=O)[C@H](CO)NC(=O)[C@H](Cc1ccc(O)cc1)NC(=O)[C@@H]1CCCN1C(=O)[C@H](CCCNC(=N)N)NC(=O)[C@@H]1CCCN1C(=O)[C@H](CCCCN)NC(=O)CN)C(=O)N[C@@H](CCCNC(=N)N)C(=O)N[C@H](C(=O)O)C(C)C (H-GKPRPYSPRPS(αGalNAc)SHPRPIRV-OH) | 5 (≈ 11.9 µg/mL) | 0.5 (≈ 1.19 µg/mL) | 1.6 (≈ 3.82 µg/mL) |  |  |  |  | 6 (≈ 14.3 µg/mL) |  |  |  | 1.1 (≈ 2.63 µg/mL) | 
CC[C@H](C)[C@H](NC(=O)[C@@H]1CCCN1C(=O)[C@H](CCCNC(=N)N)NC(=O)[C@@H]1CCCN1C(=O)[C@H](Cc1cnc[nH]1)NC(=O)[C@H](CO)NC(=O)[C@@H](NC(=O)[C@@H]1CCCN1C(=O)[C@H](CCCNC(=N)N)NC(=O)[C@@H]1CCCN1C(=O)[C@H](CO)NC(=O)[C@H](Cc1ccc(O)cc1)NC(=O)[C@@H]1CCCN1C(=O)[C@H](CCCNC(=N)N)NC(=O)[C@@H]1CCCN1C(=O)[C@H](CCCCN)NC(=O)CN)[C@@H](C)O[C@@H]1O[C@@H](CO)[C@@H](O)[C@@H](O)[C@@H]1NC(C)=O)C(=O)N[C@@H](CCCNC(=N)N)C(=O)N[C@H](C(=O)O)C(C)C (H-GKPRPYSPRPT(X1)SHPRPIRV-OH) | 1.3 (≈ 3.12 µg/mL) | 0.2 (≈ 0.48 µg/mL) | 0.5 (≈ 1.2 µg/mL) |  | 1.94 | 0.0297 |  | 1.8 (≈ 4.32 µg/mL) | 1530 | 20 |  | 0.3 (≈ 0.721 µg/mL) | 
CC[C@H](C)[C@H](NC(=O)[C@@H]1CCCN1C(=O)[C@H](CCCNC(=N)N)NC(=O)[C@@H]1CCCN1C(=O)[C@H](Cc1cnc[nH]1)NC(=O)[C@H](CO)NC(=O)[C@@H](NC(=O)[C@@H]1CCCN1C(=O)[C@H](CCCNC(=N)N)NC(=O)[C@@H]1CCCN1C(=O)[C@H](CO)NC(=O)[C@H](Cc1ccc(O)cc1)NC(=O)[C@@H]1CCCN1C(=O)[C@H](CCCNC(=N)N)NC(=O)[C@@H]1CCCN1C(=O)[C@H](CCCCN)NC(=O)CN)[C@@H](C)O[C@H]1O[C@H](CO)[C@H](O)[C@H](O)[C@H]1NC(C)=O)C(=O)N[C@@H](CCCNC(=N)N)C(=O)N[C@H](C(=O)O)C(C)C (H-GKPRPYSPRPT(αGalNAc)SHPRPIRV-OH) | 0.3 (≈ 0.721 µg/mL) | 0.2 (≈ 0.48 µg/mL) | 0.3 (≈ 0.721 µg/mL) |  | 2.04 | 0.0366 |  | 0.3 (≈ 0.721 µg/mL) | 1790 | 16 |  | 0.2 (≈ 0.48 µg/mL) | 
H-GKPRPYSPRPSSHPRPIRV-OH | 3 | 0.2 | 0.6 |  |  |  |  | 2 |  |  |  | 0.4 | 
H-GKPRPYSPRPTSHPRPIRV-OH [DROSOCIN] | 3 | 0.4 | 0.7 |  |  |  |  | 2 |  |  |  | 0.5 | 
